Key:
[1] = system: Organotypic hippocampal slice cultures (OHSC); assay: Organotypic hippocampal slice cultures, propidium iodide staining; format: cell-based; settings: rat OHSCs, 2.5 μg/ml or 25 μg/ml, 24 h
Procedure: Organotypic hippocampal slice cultures (OHSC): OHSC were prepared as described (Franklin and Paxinos, 1997) from rats brains (Lewis aged 8-10 days) CSPG-DSs were added to the OHSCs for 24 h. Propidium iodide (5 μg/ml; Sigma) was then added to the medium for 30 min. The brain slices were examined under a Zeiss laser-scanning confocal microscope (LSM510) or a Zeiss Axioplane 100 fluorescence light microscope.

PC12 cells = assay: Neurite outgrowth assay in NGF-stimulated PC12 cells; format: cell-based, rat; settings: PC12 cells on collagen, NGF 10 ng/ml, sulfated CSPG-DSs added; mean±SD
Procedure: PC12 cell line: Rat pheochromocytoma (PC12) cells were cultured in DMEM containing 8% horse serum and either 8% FCS (culture medium) or 1% FCS (differentiation medium), and antibiotics. For assays of neurite outgrowth, the cells were plated (10^5 cell/well) on 13-mm glass coverslips, precoated with collagen (500 μg/ml) in 24-well plates. Neurite outgrowth assays: PC12 cells were cultured for 24-72 h while being stimulated with 10 ng/ml NGF, with or without CSPG-DSs. Cell morphology was visualized under a phase-contrast microscope and neurite lengths were measured using ImagePro. At least 200 cells were measured for each condition.

CC(=O)N[C@H]1C(O)O[C@H](COS(=O)(=O)O)[C@H](O)[C@@H]1O[C@@H]1OC(C(=O)O)=C[C@H](O)[C@H]1O (stereo partly drawn) [CSPG-DS, 2-acetoamido-2-deoxy-3-O-(β-D-gluco-4-enepyranosyluronic acid)-6-O-sulfo-D-galactose]
neuronal loss (propidium iodide staining) [1]: significantly reduced
mean neurite length (PC12 cells): 107±7.8 μm

Reference: patent US20070010484A1, “Method for treating or inhibiting the effects of injuries or diseases that result in neuronal degeneration and method for promoting neurogenesis” (YEDA RESEARCH AND DEVELOPMENT CO. LTD., priority 2003, published 2007)
